Results on twelve compounds are retold here after patent publication US8916183B2, “Pesticidal compositions and processes related thereto” (priority 2012, dated 2014).

Assay [1] relates to Beet Armyworm (BAW) (Spodoptera exigua). The assay can be described thus: Bioassay on beet armyworm (BAW), 128-well diet tray assay. The class given is in vivo. The note with it: Spodoptera exigua; beet armyworm, 50 μg/cm^2; read-out: % Mortality BAW 50 μg/cm^2. As to the method: (§1) Certain molecules disclosed in this document were tested against BAW and CEW using procedures described in the following examples. In the reporting of the results, the “BAW & CEW Rating Table” was used (See Table Section).
Bioassays on BAW (Spodoptera exigua)
Bioassays on BAW were conducted using a 128-well diet tray assay. […] Trays were covered with a clear self-adhesive cover and held at 25° C., 14:10 light-dark for five to seven days. Percent mortality was recorded for the larvae in each well; activity in the eight wells was then averaged. The results are indicated in the table entitled “Table 5: Biological Results” (See Table Section).

Assay [2] deals with Corn Earworm (CEW) (Helicoverpa zea). The assay can be described thus: Bioassay on corn earworm (CEW), 128-well diet tray assay. The class given is in vivo. The note with it: Helicoverpa zea; corn earworm, 50 μg/cm^2; read-out: % Mortality CEW 50 μg/cm^2. As to the method: as §1
Bioassays on CEW (Helicoverpa zea)
Bioassays on CEW were conducted using a 128-well diet tray assay. […] Trays were covered with a clear self-adhesive cover and held at 25° C., 14:10 light-dark for five to seven days. Percent mortality was recorded for the larvae in each well; activity in the eight wells was then averaged. The results are indicated in the table entitled “Table 5: Biological Results” (See Table Section).

For `CC(C)(C)c1ccccc1N1C(=O)CS/C1=N\N=C\c1ccc(-c2ncn(-c3ccc(OC(F)(F)F)cc3)n2)cc1` [Compound 125C], the mortality at 50 µg/cm2 in assay [1] and in assay [2] was 50 to 100% in each case.

With `Cc1cccc(C)c1N1C(=O)CS/C1=N\N=C\c1ccc(-c2ncn(-c3ccc(OC(F)(F)C(F)(F)F)cc3)n2)cc1` [Compound 100C], the mortality at 50 µg/cm2 in assay [1] and in assay [2] was 50 to 100% throughout.

Take `CCC(C)c1ccccc1N1/C(=N/N=C/c2ccc(-c3ncn(-c4ccc(OC(F)(F)F)cc4)n3)cc2)SCCC1C` (stereo not drawn) [Compound 220C]: the mortality at 50 µg/cm2 in assay [1] and in assay [2] was 50 to 100% throughout.

For `Cc1cs/c(=N\N=C\c2ccc(-c3ncn(-c4ccc(OC(F)(F)F)cc4)n3)cc2)n1-c1c(F)cccc1F` [Compound 171C], the mortality at 50 µg/cm2 in assay [1] and in assay [2] was 50 to 100% each time.

As for `CC1CS/C(=N\N=C\c2ccc(-c3ncn(-c4ccc(OC(F)(F)F)cc4)n3)cc2)N(c2c(Cl)cccc2C(F)(F)F)C1` (stereo not drawn) [Compound 215C], the mortality at 50 µg/cm2 in assay [1] and in assay [2] was 50 to 100% in each case.

As to `Cc1cccc(C)c1N1C(=O)CCS/C1=N\N=C\c1ccc(-c2ncn(-c3ccc(OC(F)(F)F)cc3)n2)cc1` [Compound 223C], the mortality at 50 µg/cm2 in assay [1] and in assay [2] was 50 to 100% throughout.

With `CCOC(=O)c1ccc(N2CCCS/C2=N\N=C\c2ccc(-c3ncn(-c4ccc(OC(F)(F)F)cc4)n3)cc2)cc1` [Compound 207C], the mortality at 50 µg/cm2 in assay [1] and in assay [2] was 0% in each case.

Regarding `COC(=O)C1CC(c2ccc(/C=N/N=C3\SCC(=O)N3c3c(C)cccc3C)cc2)=NN1c1ccc(OC(F)(F)F)cc1` (stereo not drawn) [Compound 110C], the mortality at 50 µg/cm2 in assay [1] and in assay [2] was 50 to 100% in each case.

For `CC1CCS/C(=N\N=C\c2ccc(-c3ncn(-c4ccc(OC(F)(F)F)cc4)n3)cc2)N1c1c(Cl)cccc1C(F)(F)F` (stereo not drawn) [Compound 217C], the mortality at 50 µg/cm2 in assay [1] and in assay [2] was 50 to 100% throughout.

Turning to `Cc1cccc(C)c1/N=C(/N/N=C/c1ccc(-c2ncn(-c3ccc(OC(F)(F)F)cc3)n2)cc1)SCC(=O)NC[C@@H]1CCCN(C(=O)OC(C)(C)C)C1` [Compound 56C, (S)-tert-butyl 3-((2-((Z)-(2,6-dimethylphenylimino)-((E)-2-(4-(1-(4-(trifluoromethoxy)phenyl)-1H-1,2,4-triazol-3-yl)benzylidene)hydrazinyl)-methylthio)acetamido)methyl)piperidine-1-carboxylate], the mortality at 50 µg/cm2 in assay [1] and in assay [2] was 50 to 100% in each case.

Take `Cc1cccc(C(C)C)c1N1C(=O)CS/C1=N\N=C\c1ccc(-c2ncn(-c3ccc(OC(F)(F)F)cc3)n2)cc1` [Compound 238C]: the mortality at 50 µg/cm2 in assay [1] and in assay [2] was 50 to 100% in each case.

For the compound `CC1CS/C(=N\N=C\c2ccc(-c3ncn(-c4ccc(OC(F)(F)F)cc4)n3)cc2)N1c1ccccc1C(C)(C)C` (stereo not drawn) [Compound 165C], the mortality at 50 µg/cm2 in assay [1] and in assay [2] was 50 to 100% each time.
